Experimental data taken from patent US20150139950A1, “ALISPORIVIR TO TREAT HEPATITIS C VIRUS INFECTION” (Novartis AG, priority 2011, published 2015).

Test system: Hepatitis C virus genotype 1
Test: Clinical study of alisporivir/peg-IFNα2a/ribavirin in treatment naïve chronic HCV genotype 1 patients, by IL28B genotype
Format: in vivo, human
Text: An international, multicentre, randomised, double-blind, placebo-controlled, 4-arm parallel-group multiple dose study comparing three alisporivir/peg-IFNα2a/ribavirin regimens to standard of care treatment in 272 treatment naïve chronic HCV genotype 1 patients is provided.
Patients are randomized into one of 3 treatment arms (A, B and C) as described below in a 1:1:1 ratio. The randomization is stratified by baseline HCV RNA (HCV RNA<800000 IU/mL or HCV RNA≧800000 IU/mL) and BMI (BMI<25 kg/m2 or BMI≧25 kg/m2) at screening.
Alisporivir: 3 capsules of 200 mg (600 mg) alisporivir 2×/day orally for 1 week followed by 3 capsules of 200 mg alisporivir (600 mg) 1×/day for 47 weeks.
Pegylated interferon alfa 2a: 180 μg subcutaneously (s.c.) once weekly for 48 weeks
Ribavirin: 1000 mg/day (<75 kg) or 1200 mg/day (≧75 kg) orally in two divided doses for 48 weeks
Primary efficacy endpoint: proportion of patients achieving SVR 24 (HCV RNA<10 IU/mL at maximum 24 weeks after treatment end).
Genotyping of IL-28B by was carried out using the MALDI-TOF MS (matrix-assisted laser desorption/ionization time-of-flight mass spectrometer) technique which has emerged as a widely applicable method in molecular biology for fast and highly accurate DNA analysis. […]
Frequency of genetic polymorphisms of IL28B was calculated by treatment arm. […]

With C/C=C/C[C@@H](C)[C@@H](O)[C@H]1C(=O)N[C@@H](CC)C(=O)N(C)[C@H](C)C(=O)N(CC)[C@@H](C(C)C)C(=O)N[C@@H](C(C)C)C(=O)N(C)[C@@H](CC(C)C)C(=O)N[C@@H](C)C(=O)N[C@H](C)C(=O)N(C)[C@@H](CC(C)C)C(=O)N(C)[C@@H](CC(C)C)C(=O)N(C)[C@@H](C(C)C)C(=O)N1C [alisporivir, Alisporivir] the “treatment results of chronic Hepatitis C virus genotype 1 infection” value (patient with IL28B nonC/C genotype) was “particularly satisfactory treatment results” and the “treatment of HCV” value (patients with IL28B C/C genotype) was “can also be used effectively”.
